Several values for one entry are separate records, joined by “and”; a condition that tells them apart may be missing. Identical values can stand only once. Like-named read-outs stand apart in the source and are kept apart here.
Assays:
Lysyl oxidase (LOX) = molecular target: T1, Lysyl oxidase (LOX) (Bos taurus, UniProt P33072); assay: LOX activity assay (Amplex UltraRed/HRP fluorescence) after preincubation of enzyme with inhibitor; type: biochemical, bovine; settings: for Selectivity factor (LOX IC50 value divided by LSDAO IC50 value): LOX vs LSDAO; for remaining activity at 4 µM: 4 µM inhibitor; for remaining activity at 7 µM: 7 µM inhibitor; for remaining activity at 20 µM: 20 µM inhibitor; for remaining activity at 100 µM: 100 µM inhibitor
T1 construct: LOX was isolated from bovine aorta; from tissue; host or cells: bovine aorta
T1 sequence (P33072 170-418): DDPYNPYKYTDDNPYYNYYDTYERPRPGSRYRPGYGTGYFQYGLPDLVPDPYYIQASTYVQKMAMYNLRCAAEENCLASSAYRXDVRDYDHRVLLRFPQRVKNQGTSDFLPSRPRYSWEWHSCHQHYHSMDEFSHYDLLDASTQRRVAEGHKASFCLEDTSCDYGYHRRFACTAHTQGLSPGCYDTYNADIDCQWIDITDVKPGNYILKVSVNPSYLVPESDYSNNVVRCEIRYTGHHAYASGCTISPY
Procedure: LOX was isolated from bovine aorta at 4 °C using slight modifications of previously published procedures. All steps were carried out at in 16 mM phosphate, pH 7.8 (buffer B). After blending the aorta in buffer B containing 400 mM NaCl and 1 mM EDTA to remove soluble contaminants, the enzyme was extracted with buffer B containing 4 M urea and 1 mM EDTA. The crude enzyme extract was filtered, diluted with an equal volume of buffer B to obtain a urea concentration of 2 M, and loaded onto a DEAE column. After washing with buffer B containing 400 mM NaCl, the enzyme was eluted with buffer B containing 400 mM NaCl and 6 M urea. The urea concentration was reduced to 4 M by adding buffer B, and the solution was added to a slurry of ceramic hydroxyapatite in buffer B containing 4 M urea. After stirring, the supernatant was removed by filtration and dialyzed overnight against buffer B. The solution was added to a slurry of ceramic hydroxyapatite in buffer B, washed with small portions of 1 M phosphate and then buffer B, and then eluted with buffer B containing 6 M urea and 500 mM NaCl. After concentration to about 20 mL, the protein was applied to a Sephacryl S-200 gel filtration column preequilibrated with buffer B containing 50 mM NaCl, 1 mM EDTA, and 6 M urea and eluted with the same buffer. Active fractions were concentrated to 1 mL. Total protein concentration for 6 M urea solutions[33] was determined by its absorption at 280 nm using a molar extinction coefficient of 8.39 × 10^4 M^−1 cm ^−1.
(§1) The activity assay is adopted from the method described by Palamakumbura et al.[35]. Enzyme and inhibitor were incubated at 37 °C for the desired inhibition time, diluted into the assay mixture, and analyzed by fluorescence (Agilent Technologies Cary Eclipse Fluorescence Spectrometer, Cary Eclipse Software, 37 °C, λex = 568 and λem = 581 nm). The assay was carried out in boric acid buffer (50 mM, pH 8.2) with 1.2 M urea for LOX or in phosphate buffer (0.1 M, pH = 7.0) for LSDAO. The final reagent concentrations in the assay mixture were 10 mM cadaverine, 10 μM Amplex UltraRed (Life Technologies, Carlsbad, CA), and 1 U/mL horse radish peroxidase (Amresco, Solon, OH).
(§2) The enzyme activity, which is proportional to the rate of increase in fluorescence, was measured for each experiment. Residual activity was calculated by dividing each rate by a maximum rate determined in the absence of inhibitor such that [residual activity] = ([rate with inhibitor] – [baseline rate])/([maximum rate] – [baseline rate]). […] The residual activities from replicate experiments were averaged. For each inhibitor concentration, log([average residual activity]) was plotted against inhibition time. Linear lines of best fit forced through the origin were calculated for each data set using Graphpad Prism 5.0b (La Jolla, CA). For each inhibitor, the slopes of these lines (min^−1) were plotted as –1/slope against 1/[inhibitor concentration] to produce a Kitz–Wilson plot.
(§3) To quantify the selectivity of each inhibitor, we defined a numerical “selectivity factor” as the inhibitor's IC50 value for LOX divided by its IC50 value for LSDAO (Figure 3(C)).

[1] = molecular target: T2, lentil seedling diamine oxidase (LSDAO) (Lens culinaris, UniProt P49252); assay: LSDAO activity assay (Amplex UltraRed/HRP fluorescence) after preincubation of enzyme with inhibitor; type: biochemical
T2 construct: Eight-day-old lentil seedlings (Lens esculenta) were blended and extracted; from tissue; host or cells: eight-day-old lentil seedlings (Lens esculenta)
T2 sequence (P49252 19-667): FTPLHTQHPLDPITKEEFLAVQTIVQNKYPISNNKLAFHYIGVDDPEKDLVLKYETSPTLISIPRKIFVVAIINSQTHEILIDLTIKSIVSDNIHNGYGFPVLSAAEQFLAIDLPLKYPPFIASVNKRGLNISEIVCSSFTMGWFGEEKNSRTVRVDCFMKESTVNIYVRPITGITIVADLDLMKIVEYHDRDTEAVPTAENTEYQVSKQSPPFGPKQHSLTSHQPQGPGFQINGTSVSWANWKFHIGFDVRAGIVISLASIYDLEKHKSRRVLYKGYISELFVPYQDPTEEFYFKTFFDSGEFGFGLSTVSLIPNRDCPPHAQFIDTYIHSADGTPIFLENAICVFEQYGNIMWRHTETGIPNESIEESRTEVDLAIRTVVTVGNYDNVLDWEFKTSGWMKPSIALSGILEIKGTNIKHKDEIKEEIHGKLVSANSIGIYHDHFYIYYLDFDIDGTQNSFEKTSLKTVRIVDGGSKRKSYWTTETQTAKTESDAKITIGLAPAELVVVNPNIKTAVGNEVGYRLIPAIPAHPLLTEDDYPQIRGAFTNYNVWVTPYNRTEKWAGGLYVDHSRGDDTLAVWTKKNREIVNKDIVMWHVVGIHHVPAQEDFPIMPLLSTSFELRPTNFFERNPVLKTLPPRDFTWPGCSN
Procedure: The LSDAO extraction process was carried out at 4 °C according to the method of Floris et al.[30] with slight modifications. Eight-day-old lentil seedlings (Lens esculenta) were blended and extracted with phosphate buffer (5 mM, pH 6.0, buffer A). Ammonium sulfate (230 g/L, 40% saturation) was used to precipitate contaminants, and then additional ammonium sulfate (125 g/L, 60% saturation) was used to precipitate the LSDAO. The crude precipitate was redissolved, dialyzed against buffer A, applied to a DEAE column, and eluted with buffer A. Active fractions were adjusted to pH 6.5, applied to a CM resin column, and eluted with 5 mM phosphate buffer, pH 6.5. Active fractions were concentrated and the buffer was changed to 10 mM phosphate, pH 7.0 before the protein was applied to a Sephacryl S-300 column and eluted with the same buffer. The concentration of the LSDAO dimer was determined from its absorption at 278 nm in 0.1 M phosphate buffer[31] using a molar extinction coefficient of 2.45 × 10^5 M^−1 cm^−1.
as §1, §2, §3
From the slopes and y-intercepts of these lines, the kinetic parameters KI (the reversible binding constant) and k2 (the rate constant for irreversible reaction) (Figure 5(A)) can be calculated.

LOX [2] = tested on: LOX; parameters: method as in PMID 2888772; settings: chick embryos; cited from earlier work
LOX [3] = tested on: LOX; parameters: method as in PMID 6131892; settings: cited from earlier work
LOX [4] = settings: literature data reprocessed by Kitz-Wilson analysis, cited from earlier work
[5] = stated in the text without reference; cited from earlier work
[6] = 4 min, read-out: Average Percent Activity Remaining, LOX
[7] = 10 min, read-out: Average Percent Activity Remaining, LOX
[8] = Kitz-Wilson analysis, rate constant for irreversible reaction
[9] = 4 min, read-out: Average Percent Activity Remaining, LSDAO
[10] = 10 min, read-out: Average Percent Activity Remaining, LSDAO
[11] = Kitz-Wilson plot, pH 8.0 and 37 °C

## CCCCCC(=O)NN [compound 3]
Lysyl oxidase (LOX); 10-min preincubation, 37 °C, read-out: IC50 LOX
  IC50: 20 µM
Lysyl oxidase (LOX); 10-min preincubation
  Selectivity factor (LOX IC50 value divided by LSDAO IC50 value): 10
Lysyl oxidase (LOX); [6]
  remaining activity at 4 µM: 93%
  remaining activity at 7 µM: 78%
  remaining activity at 20 µM: 69%
  remaining activity at 100 µM: 27%
Lysyl oxidase (LOX); 4 min, 500 µM inhibitor, read-out: Average Percent Activity Remaining, LOX
  remaining activity at 500 µM: 8%
Lysyl oxidase (LOX); [7]
  remaining activity at 4 µM: 84%
  remaining activity at 7 µM: 75%
  remaining activity at 20 µM: 48%
  remaining activity at 100 µM: 3%
Lysyl oxidase (LOX); [8]
  LOX k2 (range): 0.40 (0.23–1.4) min^-1 and 0.4 min^-1 and 0.40 min^-1
Lysyl oxidase (LOX); Kitz-Wilson analysis, reversible binding constant, read-out: LOX KI^-1 (range)
  KI (inactivation): 200 µM
Lysyl oxidase (LOX); compared to phenylhydrazine
  fold lower affinity for LOX than phenylhydrazine: 3 fold
[1]; 10-min preincubation, 37 °C, read-out: IC50 LSDAO
  IC50: 2 µM
[1]; [9]
  remaining activity at 1 µM: 90%
  remaining activity at 2 µM: 80%
  remaining activity at 4 µM: 71%
  remaining activity at 8 µM: 54%
  remaining activity at 14 µM: 40%
  remaining activity at 20 µM: 33%
  remaining activity at 40 µM: 4%
  remaining activity at 500 µM: 0.7%
[1]; [10]
  remaining activity at 1 µM: 76%
  remaining activity at 2 µM: 52%
  remaining activity at 4 µM: 33%
  remaining activity at 8 µM: 13%
  remaining activity at 14 µM: 8%
  remaining activity at 20 µM: 4%
[1]; [8]
  LSDAO k2 (range): 0.67 (0.37–3.3) min^-1 and 0.7 min^-1 and 0.67 min^-1
[1]; Kitz-Wilson analysis, reversible binding constant, read-out: LSDAO KI^-1 (range)
  KI (inactivation): 50 µM and 54 µM

## NNC(=O)c1ccncc1 [hydrazide of isonicotinic acid]
LOX [2]
  Inhibition of LOX in vivo: can partially inhibit LOX

## N#CCCN [compound 2, β-aminopropionitrile]
LOX [3]; 10 μM, 2-h incubation
  Inhibition of LOX at 10 μM: full inhibition
LOX [3]; 2-h incubation
  IC50: 0.2 µM
LOX [3]; [11]
  KI (inactivation): 6 µM
  k2 LOX: 0.16 min⁻¹

## NNc1ccccc1 [compound 1, phenylhydrazine, reference compound]
Lysyl oxidase (LOX)
  IC50: 6 µM
Lysyl oxidase (LOX); 10-min preincubation
  Selectivity factor (LOX IC50 value divided by LSDAO IC50 value): 600
[1]
  IC50: 0.01 µM
[1]; [10]
  remaining activity at 0.005 µM: 80%
  remaining activity at 0.0075 µM: 62%
  remaining activity at 0.01 µM: 50%
  remaining activity at 0.015 µM: 13%
  remaining activity at 0.03 µM: 0%
  remaining activity at 0.1 µM: 0%
  remaining activity at 0.5 µM: 0%
LOX [4]
  LOX k2 (range): 0.32 (0.16 to >10) min^-1 and 0.32 min^-1
LOX [4]; read-out: LOX KI^-1 (range)
  KI (inactivation): 13 µM
[5]
  pKa of conjugate acid: 5

Source: article PMC6009937, “Comparing hydrazine-derived reactive groups as inhibitors of quinone-dependent amine oxidases” (Journal of Enzyme Inhibition and Medicinal Chemistry, 2017)
